ChEMBL document CHEMBL4002566, “S-substituted 3,5-dinitrophenyl 1,3,4-oxadiazole-2-thiols and tetrazole-5-thiols as highly efficient antitubercular agents” (Eur J Med Chem, 2017)
Converted amounts (≈) assume the structure as drawn.

How the values were obtained:
Assay type in all cases: functional
Nakaseomyces glabratus = test: Antifungal activity against Candida glabrata 20/I after 24 hrs by broth microdilution method
[1] = tested on: Trichophyton mentagrophytes; test: Antifungal activity against Trichophyton mentagrophytes 445 after 72 hrs by broth microdilution method; details: Trichophyton mentagrophytes, 445, 72 h
Candida tropicalis = test: Antifungal activity against Candida tropicalis 156 after 24 hrs by broth microdilution method; details: Candida tropicalis, 156, 24 h
Pichia kudriavzevii = test: Antifungal activity against Candida krusei E28 after 24 hrs by broth microdilution method; details: E28, 24 h
Aspergillus fumigatus = test: Antifungal activity against Aspergillus fumigatus 231 after 24 hrs by broth microdilution method; details: Aspergillus fumigatus, 231, 24 h
Lichtheimia corymbifera = test: Antifungal activity against Absidia corymbifera 272 after 24 hrs by broth microdilution method; details: Lichtheimia corymbifera, 272, 24 h
Candida albicans = test: Antifungal activity against Candida albicans ATCC 44859 after 24 hrs by broth microdilution method; details: ATCC 44859, 24 h
Trichosporon asahii = test: Antifungal activity against Trichosporon asahii 1188 after 24 hrs by broth microdilution method; details: Trichosporon asahii, 1188, 24 h

Q: With `C[C@@H]1[C@H](O)[C@@H](C)/C=C/C=C/C=C/C=C/C=C/C=C/C=C/[C@H](O[C@@H]2O[C@H](C)[C@@H](O)[C@H](N)[C@@H]2O)C[C@@H]2O[C@](O)(C[C@@H](O)C[C@@H](O)[C@H](O)CC[C@@H](O)C[C@@H](O)CC(=O)O[C@H]1C)C[C@H](O)[C@H]2C(=O)O` [AMPHOTERICIN B] as the molecule, how does the MIC (Nakaseomyces glabratus) read?
A: The MIC was 0.54 µM (≈ 0.499 µg/mL).

Q: What about the MIC [1] of the same molecule?
A: Its MIC is 0.54 µM (≈ 0.499 µg/mL).

Q: And the MIC (Candida tropicalis)?
A: The MIC was 0.54 µM (≈ 0.499 µg/mL).

Q: And the MIC (Pichia kudriavzevii)?
A: Its MIC is 1 µM (≈ 0.924 µg/mL).

Q: What about the MIC (Aspergillus fumigatus) of the same molecule?
A: The MIC was 0.54 µM (≈ 0.499 µg/mL).

Q: And the MIC (Lichtheimia corymbifera)?
A: Its MIC is 1 µM (≈ 0.924 µg/mL).

Q: What about the MIC (Candida albicans) of the same molecule?
A: Its MIC is 0.54 µM (≈ 0.499 µg/mL).

Q: What about the MIC (Trichosporon asahii) of the same molecule?
A: The MIC was 0.27 µM (≈ 0.25 µg/mL).
